# Key:
# [1] = tested on: mouse contact sensitisation model; assay: Contact sensitisation (oxazalone, ear swelling) in mice; format: in vivo
# Description: 1. Contact Sensitisation (CS)
# On day 0, mice were painted on their shaved right flank with 50 μl 2.5% oxazalone or vehicle (acetone 4:1 olive oil). On day 5 animals were challenged on their dorsal right ear surface with 25 μl of either 0.75% or 0.25% oxazalone. Prior to ear challenge, and 24, 48 and 72 hour post challenge ear thickness was measured using an engineer's micrometers. Ear swelling is determined as the difference in thickness prior and post challenge. The data are expressed as percentage change from the vehicle treated groups given sensitisation and challenge.
# DHEA, DHEAS were administered at various times, generally at time of sensitisation (day 0) and time of challenge (day 3 or 4-DTH model, day 4 or 5-(CS-model) in order to obtain an augmentation of the immune response above non-steroid treated animals.
# Different doses of the inhibitors have been used, and compared to the effect of dexamethasone as potential immunosuppressive/anti-inflammatory agents.
# [2] = tested on: carrageenan pleurisy; assay: Carrageenan pleurisy; format: in vivo, Wistar Rats; details: FIG. 14; CT2251 10 mg/kg p.o. at -24 h and -1 h; six hours
# Description: Wistar Rats were anaesthetised and given intra-pleural injections of 0.5% carrageenan in saline at time 0. Six hours later the animals were killed and pleural cavity lavaged with 1 ml. citrated saline. Volume of fluid exudate and exudate cell concentration were measured. Animals were randomised to 5 treatment groups (n=6).
# [3] = target: T1, U937 DHEAS sulphatase (Homo sapiens, UniProt P08842); assay: DHEAS sulphatase activity in U937 cell extracts; format: biochemical
# T1 construct: DHEAS sulphatase activity in U937 cell extracts; endogenous in cells; host or cells: U937 cells (sonicate in Tris buffered saline with 1% Triton X-100)
# T1 sequence (P08842 22-583): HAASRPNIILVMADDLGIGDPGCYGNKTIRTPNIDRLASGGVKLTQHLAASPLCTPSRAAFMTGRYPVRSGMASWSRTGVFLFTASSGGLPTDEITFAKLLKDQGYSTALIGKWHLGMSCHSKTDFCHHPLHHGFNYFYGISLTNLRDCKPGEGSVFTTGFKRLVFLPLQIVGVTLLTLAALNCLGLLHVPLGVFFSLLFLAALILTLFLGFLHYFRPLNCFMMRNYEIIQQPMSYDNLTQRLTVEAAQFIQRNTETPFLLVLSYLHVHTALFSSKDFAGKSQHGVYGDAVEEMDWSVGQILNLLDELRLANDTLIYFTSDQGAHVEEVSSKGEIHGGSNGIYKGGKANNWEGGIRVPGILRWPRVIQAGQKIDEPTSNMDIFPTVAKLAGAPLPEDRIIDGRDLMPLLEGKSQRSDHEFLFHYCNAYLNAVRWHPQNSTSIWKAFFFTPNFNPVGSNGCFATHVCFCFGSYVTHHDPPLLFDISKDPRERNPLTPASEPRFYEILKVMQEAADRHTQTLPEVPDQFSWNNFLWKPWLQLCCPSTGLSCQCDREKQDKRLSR
# Description: c) DHEAS sulphatase activity in U937 cell extracts.
# The inhibitors Ct 2211 and Ct 2251 were dissolved in 100% ethanol and 100% dimethyl sulphoxide (DMSO) respectively at stock concentrations of 20 mM. These were titrated in their respective solvents over a range of assay concentrations. The tritiated substrates DHEA sulphate and estrone sulphate were obtained from New England Nuclear and diluted in ethanol to give a final concentration of 70 nM for use in the assay. U937 cells were grown in RPLI containing 10% foetal bovine serum and harvested at a cell concentration of 1×10^6 /ml. These were washed in serum free medium stored at -70° C. at 1×10^8 /ml in Tris buffered saline pH7.4+1% triton X-100 and sonicated prior to use in the assay.
# 50 μl of substrate in ethanol was added to each assay tube and the solvent removed in a rotary vacuum evaporator. […] After centrifugation scintillation fluid was added to extract the desulphated substrate and the CPM present in an aliquot of the organic phase were counted using a beta counter.
# In order to obtain total counts 10 μl of the aqueous fraction of the duplicate tubes containing only hot DHEA-s were counted after addition of scintillant and the total cpm calculated as follows: [formula] where vo +inhibitor-rate in the presence of inhibitor and vo -inhibitor=rate in the absence of inhibitor.
# IC50 determined as described previously.
# [4] = tested on: rat delayed type hypersensitivity model; assay: Delayed type hypersensitivity in the rat; format: in vivo, Lewis rats; details: FIG. 12; CT2251 0.1, 1, 10 mg/kg s.c. days 0, 3 and 4; 24 and 48 h
# Description: Lewis rats were sensitised with SRBC IV and challenged 4 days later with 10^8 SRBC into the footpad. The resulting swelling response was measured 24 and 48 h later. Rats were randomised into 5 groups (n=6-7) and steroids given on days 0, 3 and 4, subcutaneously. Results given as mean±sem.
# [5] = tested on: collagen II-induced arthritis; assay: Collagen II-induced arthritis in mice; format: in vivo, Male DBA/1 mice; details: FIG. 13; CT2251 10 mg/kg on day -1 and weekly
# Description: Male DBA/1 mice were sensitised with type II collagen into the base of the tail in FCA in day 0. These animals received a further injection of CII in FICA (Freunds Incomplete Adjuvant) on day 18 and incidence and severity of arthritis assessed from day 25. Mice were randomised into 3 groups (n=10).
# [6] = tested on: mouse delayed type hypersensitivity model; assay: Delayed type hypersensitivity (SRBC, footpad swelling) in the mouse; format: in vivo; details: FIG. 11, 24 h post challenge
# Description: 2. Delayed Type Hypersensitivity (DTH)
# On day 0, animals were injected intravenously with 10^6 washed SRBC in 0.1 ml saline. Four days later animals were challenged in the right hind footpad with 10^6 washed SRBC in 50 μl saline. Footpad thickness is measured prior to challenge, 24, 48 and 72 hours post challenge using calipers. Footpad swelling is determined as the difference in thickness prior and post challenge. The data are expressed as percentage change from the vehicle treated groups given sensitisation and challenge.
# Animals were randomised into 10 groups (n=7-8) and steroids given on day 0 and 4.
# Steroids were given on day 0 and 3 subcutaneously. Response at 24 h post challenge. Results given as mean±sem. $, *p<0.05 ANOVA.
structure (smiles),measurement,setting,value
"C[C@]12CC[C@@H]3c4ccc(OS(N)(=O)=O)cc4CC[C@H]3[C@@H]1CCC2=O [CT 2251, Estrone 3-0-sulphamate]","normal ear swelling response, inhibitor on its own","[1]; Experiment 4, FIG. 7, CT2251 0.1 and 10 mg/kg s.c. days 0 and 4",significantly inhibited the normal ear swelling response
same,effect on DHEA-augmented ear swelling,"[1]; Experiment 4, FIG. 7, CT2251 0.1 and 10 mg/kg with DHEA 5 mg/kg s.c. days 0 and 4",not that seen with DHEA
same,effect on DHEAS-augmented ear swelling,"[1]; Experiment 4, FIG. 7, CT2251 0.1 and 10 mg/kg with DHEAS 5 mg/kg s.c. days 0 and 4",reversed the augmentation seen with DHEAS
same,degree of ear swelling,"[1]; Experiment 5, FIG. 8, CT2251 0.001-0.3 mg/kg s.c. days 0 and 4, 24 h",inhibited by CT2251 treatment in a dose-dependent manner
same,inhibitory effect on ear swelling in presence of increasing substrate,"[1]; Experiment 6, FIG. 9, CT2251 0.1 mg/kg with DHEAS 5, 15, 50 mg/kg days 0 and 4, 24 h",can be reverse by increasing doses of DHEAS
same,minimal effective dose,"[1]; Mus musculus, sc, Experiment 5, FIG. 8, s.c. days 0 and 4, 24 h, read-out: effective dose for inhibition of ear swelling",≥ 0.1 mg/kg
same,reduction of cell infiltrate,[2],28%
same,reduction of exudate volume,[2],43%
same,IC50,[3],40 nM
same,inhibition of U937 sulphatase with estrone sulphate as substrate,"[3]; FIG. 3, estrone sulphate substrate",inhibit
same,DTH footpad swelling response,[4],can also suppress a DTH response in rats
same,development of arthritis (incidence and severity),[5],prevented the development of any disease
same,"foot swelling response, inhibitor on its own",[6]; CT2251 0.1 and 10 mg/kg s.c.,can markedly reduce the foot swelling response
same,effect on DHEAS-mediated augmentation of foot swelling,[6]; CT2251 0.1 and 10 mg/kg with DHEAS 5 mg/kg s.c.,can effectively reverse the DHEAS-mediated augmentation
